These results are taken from US20210214401A1, “MANUFACTURING METHOD OF NANODISC COMPRISING AN OLFACTORY RECEPTOR PROTEIN AND NANODISC COMPRISING AN OLFACTORY RECEPTOR PROTEIN MANUFACTURED BY THE SAME” (SEOUL NATIONAL UNIVERSITY R&DB FOUNDATION, priority 2017, published 2021).

Assay [1] has as its target T1, TAAR13c-embedded nanodiscs (T13NDs) (Danio rerio, UniProt Q5QNP2).
T1 construct: His tag (from pET-DEST42) (C); made in house; host or cells: E. coli BL21 (DE3)
T1 sequence (Q5QNP2 1-341): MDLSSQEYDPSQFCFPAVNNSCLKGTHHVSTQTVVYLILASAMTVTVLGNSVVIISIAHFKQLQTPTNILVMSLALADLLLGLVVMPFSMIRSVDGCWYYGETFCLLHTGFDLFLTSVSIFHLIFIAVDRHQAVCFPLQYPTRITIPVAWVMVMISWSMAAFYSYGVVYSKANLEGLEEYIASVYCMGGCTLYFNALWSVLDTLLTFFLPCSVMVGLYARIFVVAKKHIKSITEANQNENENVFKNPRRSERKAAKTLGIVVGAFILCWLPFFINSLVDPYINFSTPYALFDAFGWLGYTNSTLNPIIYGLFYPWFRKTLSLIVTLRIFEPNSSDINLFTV
The assay is described as follows: Real-time intrinsic tryptophan fluorescence of T13ND. The assay is classed as binding, zebrafish (Danio rerio). Conditions: excitation 290 nm; emission 340 nm; FIG. 11. As for the experimental part: The intrinsic fluorescence of T13NDs was measured real time using the LS 55 luminescence spectrometer (Perkin Elmer, USA) (excitation 290 nm; emission 340 nm). The real-time measurement of intrinsic fluorescence of TAAR13c was measured at various amine concentrations of 1 mM to 10 mM.

For assay [2], the target named is T2, TAAR13c (Danio rerio, UniProt Q5QNP2).
T2 construct: expressed in transfected cells; host or cells: HEK-293
T2 sequence (Q5QNP2 1-341): T1 sequence (Q5QNP2 1-341)
The assay is described as follows: Dual-Glo Luciferase assay, TAAR13c-expressing HEK-293 cells. The assay is classed as cell-based, zebrafish (Danio rerio). As for the experimental part: Human embryonic kidney (HEK)-293 cells were cultured in Dulbecco's Modified Eagles Medium (DMEM) (HyClone, USA) containing 1% penicillin, 1% streptomycin (Gibco, USA) and 10% Fetal Bovine Serum (FBS)(Gibco, USA), under the conditions of 37° C. and 5% C02. Transfection was performed by the following method using Lipofectamine® 3000. Specifically, the cells were transfected with a DNA mixture containing TAAR13c, pCRE-Luc, pSV40-RL, Gαolf, and Receptor-transporting protein 1 short (RTP1S) using Lipofectamine® 3000. The characteristics against cadaverine were confirmed using the TAAR13c produced in Example 4 by the Dual-Glo Luciferase assay system. Specifically, the transfected cells were cultured in DMEM medium (50 μL) for 30 minutes, and an odorant (25 μL) designed to the desired concentration was added thereto, and cultured for 4 hours. Then, the Dual-Glo Luciferase reagent (20 μL) was added thereto, cultured at room temperature for 10 minutes, and the firefly luciferase luminescence was measured using the luminescence plate reader. Then, the Dual-Glo Stop-n-Glo reagent (20 μL) was added to the measured sample, and the mixture was cultured at room temperature for 10 minutes, and the Renilla luciferase luminescence was measured. The measured data was analyzed using the following formula. […]

Assay [3] concerns HEK-293 cells transfected with a random vector (MocK). In words: Dual-Glo Luciferase assay, cells transfected with a random vector (MocK). The assay is classed as cell-based, Human. Particulars: Comparative Example, FIG. 5.

For `NCCCCCN` [CV, cadaverine], in assay [1], the “real-time tryptophan fluorescence of T13ND with increasing concentration of CV” value is on record as “T13ND has an affinity for CV”. Further, in assay [2] (FIG. 6), the “selectivity of TAAR13c response among various amines (cell-based)” value was “showed a response only against CV”. Also, the “response of TAAR13c-expressing cells to CV (normalised CRE/Renilla luciferase)” value in assay [2] (concentration-dependent treatment of CV, 4 hours, FIG. 5) is reported as “significant response”. For the same molecule, the “response of Mock-transfected cells to CV (normalised CRE/Renilla luciferase)” value in assay [3] is “did not show any significant response”.
